Results as given in patent publication US11679107B2 (Eisai R&D Management Co., Ltd., priority 2018, dated 2023).
Where two headings read alike, the source gives them in different places.

Experiments:
[1] = target: T1, SF3b complexes (Homo sapiens, UniProt O75533+Q7RTV0); experiment: Scintillation proximity assay (SPA) with [3H]-labelled pladienolide probe; format: binding; settings: SF3B1 (WT); geometric mean; read-out: SPA-ATS GMean IC50 (nM) SF3B1 (WT)
T1 construct: endogenous in cells; host or cells: Nuclear extracts; A HeLa S3 extract preparation is described for the in vitro splicing assay
Outline: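 SF3b complexes captured from nuclear extracts on anti-SF3B1 antibody SPA beads; test compounds pre-incubated 30 min before 2.5 nM [3H]-pladienolide probe added, then 30 min incubation. Bound probe read by scintillation; values from non-linear regression of concentration–response curves.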

[2] = system: NCI-H1568 cells (high MCL1); experiment: Cell proliferation and viability, CellTiter-Glo, 72 hours; format: cell-based; settings: for GI50: geometric mean
Outline: (§1)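 Cells grown in RPMI-1640 with 10% FBS (Panc line with added insulin and FBS to 15%) were exposed to an 11-point half-log dilution series, typically 10 μM-100 pM, at 0.1% final DMSO. After incubation at 37° C, 5% CO2, ATP content was measured by luminescence and normalized to a time-zero plate and DMSO wells.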

[3] = system: Panc 05.04 cells (SF3b K700E mutant); experiment: as above; format: cell-based; settings: for GI50: geometric mean
Outline: as §1

[4] = system: Ad2 variant pre-mRNAs spliced in HeLa S3 nuclear extracts; experiment: In vitro splicing assay (IVS), RT-qPCR of spliced product; format: biochemical; settings: for IC50: geometric mean; for Ratio Ad2.1/2.2: ratio of IVS IC50 Ad2.1 to Ad2.2
Outline: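 Ad2 variant pre-mRNA (2 ng) with FTZΔi control RNA in HeLa S3 nuclear extract (8 μg) was pre-incubated with compound or DMSO for 15 min at 30 °C. Splicing ran 90 min at 30 °C after adding 0.5 mM ATP, creatine phosphate and MgCl2. Spliced product was quantified by TaqMan RT-qPCR, normalized to DMSO, and curve-fitted.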

[5] = 72 h, NCIH1568.1, -100% = cidal, 0% = static, 100% = uninhibited growth
[6] = 72 h, PANC0504.1, -100% = cidal, 0% = static, 100% = uninhibited growth
[7] = Ad2.1 pre-mRNA substrate, read-out: qPCR-IVS-ATS GMean IC50 (nM) Ad2.1
[8] = Ad2.2 pre-mRNA substrate, read-out: qPCR-IVS-ATS GMean IC50 (nM) Ad2.2
[9] = NCI-H1568, read-out: CTGlo-ATS GMean GI50 (nM) 72 h NCIH1568.1, NCIH1568.1 cells, 72 h
[10] = NCIH1568.1 cells, 72 h, −100% cidal, 0% static, 100% maximal growth
[11] = PANC0504.1 cells, 72 h, −100% cidal, 0% static, 100% maximal growth
[12] = Panc 05.04, read-out: CTGlo-ATS GMean GI50 (nM) 72 h PANC0504.1, PANC0504.1 cells, 72 h
[13] = NCI-H1568, 72 h, read-out: CTGlo-ATS GMean GI50 (nM) 72 h NCIH1568.1, NCIH1568.1 cells, 72 h
[14] = Panc 05.04, 72 h, read-out: CTGlo-ATS GMean GI50 (nM) 72 h PANC0504.1, PANC0504.1 cells, 72 h
[15] = NCI-H1568, read-out: CTGlo-ATS GMean GI50 (nM) 72 h NCIH1568.1, 72 h, NCIH1568.1
[16] = Panc 05.04, read-out: CTGlo-ATS GMean GI50 (nM) 72 h PANC0504.1, 72 h, PANC0504.1

Compound	IC50 [1]	CTGlo-ATS Mean MinResponse % 72 h NCIH1568.1 [2, 5]	GI50 ([2]; NCI-H1568, 72 h, read-out: CTGlo-ATS GMean GI50 (nM) 72 h NCIH1568.1, 72 h, NCIH1568.1)	CTGlo-ATS Mean MinResponse % 72 h PANC0504.1 [3, 6]	GI50 ([3]; Panc 05.04, 72 h, read-out: CTGlo-ATS GMean GI50 (nM) 72 h PANC0504.1, 72 h, PANC0504.1)	IC50 [4, 7]	IC50 [4, 8]	Ratio Ad2.1/2.2 [4]	GI50 [2, 9]	CTGlo-ATS Mean MinResponse % 72 h NCIH1568.1 [2, 10]	CTGlo-ATS Mean MinResponse % 72 h PANC0504.1 [3, 11]	GI50 [3, 12]	GI50 [2, 13]	GI50 [3, 14]	GI50 [2, 15]	GI50 [3, 16]
CC(=O)N1CCC(n2nnc3c(F)cc(/C=C(\C)[C@H]4OC(=O)C[C@H](O)CC[C@H](C)[C@@H](OC(=O)N5CCNCC5)/C=C/[C@@H]4C)cc32)CC1 [Compound 253, [(2S,3S,4E,6R,7S,10R)-2-[(E)-1-[3-(1-acetylpiperidin-4-yl)-7-fluorobenzotriazol-5-yl]prop-1-en-2-yl]-10-hydroxy-3,7-dimethyl-12-oxo-1-oxacyclododec-4-en-6-yl] piperazine-1-carboxylate]	1.92 nM	−84.782%	2.42 nM	−80.763%	12.9 nM	10 nM	8.59 nM	1.167	–	–	–	–	–	–	–	–
C/C(=C\c1cc(F)c2cnn(CC(=O)N(C)C)c2c1)[C@H]1OC(=O)C[C@H](O)CC[C@H](C)[C@@H](OC(=O)N2CCN(C)CC2)/C=C/[C@@H]1C [Compound 132]	4.91 nM	–	–	–	–	34.1 nM	12.8 nM	–	11.5 nM	−68.423%	−94.673%	13.6 nM	–	–	–	–
C/C(=C\c1cc(F)cc(N2CCN(S(=O)(=O)CCN3CCOCC3)CC2)c1)[C@H]1OC(=O)C[C@H](O)CC[C@H](C)[C@@H](OC(=O)N2CCN(C)CC2)/C=C/[C@@H]1C [Compound 73]	2.42 nM	–	–	–	–	13.1 nM	13.6 nM	–	5.85 nM	−76.720%	−79.201%	6.91 nM	–	–	–	–
C/C(=C\c1cc(F)c2cnn(CC(=O)N3CCOCC3)c2c1)[C@H]1OC(=O)C[C@H](O)CC[C@H](C)[C@@H](OC(=O)N2CCN(C)CC2)/C=C/[C@@H]1C [Compound 130]	37.1 nM	–	–	–	–	43.9 nM	30 nM	–	12 nM	−72.458%	−93.452%	18.3 nM	–	–	–	–
C/C(=C\c1cc(F)cc(N(C)C2CCN(S(C)(=O)=O)CC2)c1)[C@H]1OC(=O)C[C@H](O)CC[C@H](C)[C@@H](OC(=O)N2CCN(C)CC2)/C=C/[C@@H]1C [Compound 174]	3.14 nM	–	–	–	–	13.1 nM	10.7 nM	–	3.86 nM	−92.525%	−80.529%	6.04 nM	–	–	–	–
C/C(=C\c1cc(F)cc(N2CCOCC2)c1)[C@H]1OC(=O)C[C@H](O)CC[C@H](C)[C@@H](OC(=O)N2CCN(C3CCCC3)CC2)/C=C/[C@@H]1C [Compound 27]	10.5 nM	–	–	–	–	39.9 nM	42.3 nM	–	12.3 nM	−71.773%	−84.822%	11.9 nM	–	–	–	–
C/C(=C\c1cc(F)c2nn(C3CCOCC3)nc2c1)[C@H]1OC(=O)C[C@H](O)CC[C@H](C)[C@@H](OC(=O)N2CCN(C)CC2)/C=C/[C@@H]1C [Compound 141]	13 nM	–	–	–	–	> 25000 nM	61.3 nM	–	48.8 nM	−63.745%	−94.865%	72.4 nM	–	–	–	–
C/C(=C\c1cccc(S(=O)(=O)N2CCC(O)CC2)c1)[C@H]1OC(=O)C[C@H](O)CC[C@H](C)[C@@H](OC(=O)N2CCN(C)CC2)/C=C/[C@@H]1C [Compound 95]	2.32 nM	–	–	–	–	10.3 nM	10 nM	–	–	−73.174%	−93.120%	–	2.51 nM	2.59 nM	–	–
C/C(=C\c1cc(F)cc(N2CCN(C(=O)CO)CC2)c1)[C@H]1OC(=O)C[C@H](O)CC[C@H](C)[C@@H](OC(=O)N2CCN(C)CC2)/C=C/[C@@H]1C [Compound 135]	3.67 nM	–	–	–	–	14.9 nM	14.9 nM	–	2.41 nM	−84.225%	−90.575%	2.46 nM	–	–	–	–
C/C(=C\c1cc(F)cc(N2CCC[C@H]2CO)c1)[C@H]1OC(=O)C[C@H](O)CC[C@H](C)[C@@H](OC(=O)N2CCN(C)CC2)/C=C/[C@@H]1C [Compound 15]	6.33 nM	–	–	–	–	21.6 nM	12.3 nM	–	–	−74.931%	−80.816%	–	7.58 nM	6.23 nM	–	–
C/C(=C\c1cc(F)cc(NS(=O)(=O)N(C)C)c1)[C@H]1OC(=O)C[C@H](O)CC[C@H](C)[C@@H](OC(=O)N2CCN(C)CC2)/C=C/[C@@H]1C [Compound 248, [(2S,3S,4E,6R,7S,10R)-2-[(E)-1-[3-(dimethylsulfamoylamino)-5-fluorophenyl]prop-1-en-2-yl]-10-hydroxy-3,7-dimethyl-12-oxo-1-oxacyclododec-4-en-6-yl] 4-methylpiperazine-1-carboxylate]	6.62 nM	−46.753%	–	−92.622%	–	> 25000 nM	76.4 nM	327.274	–	–	–	–	–	–	97 nM	75.8 nM
COCC(=O)Nc1cc(F)cc(/C=C(\C)[C@H]2OC(=O)CC(O)CCC(C)[C@@H](OC(=O)N3CCN(C)CC3)/C=C/[C@@H]2C)c1 (stereo in doubt) [Compound 249, [(2S,3S,4E,6R,7R,10S)-2-[(E)-1-[3-fluoro-5-[(2-methoxyacetyl)amino]phenyl]prop-1-en-2-yl]-10-hydroxy-3,7-dimethyl-12-oxo-1-oxacyclododec-4-en-6-yl] 4-methylpiperazine-1-carboxylate]	5.16 nM	−49.016%	–	−93.297%	–	6350 nM	33.6 nM	188.921	–	–	–	–	–	–	14.5 nM	13.8 nM
C/C(=C\c1cccc(S(=O)(=O)NC(C)C)c1)[C@H]1OC(=O)CC(O)CCC(C)[C@@H](OC(=O)N2CCN(C)CC2)/C=C/[C@@H]1C (stereo in doubt) [Compound 209, [(2S,3S,4E,6R,7R,10S)-10-hydroxy-3,7-dimethyl-12-oxo-2-[(E)-1-[3-(propan-2-ylsulfamoyl)phenyl]prop-1-en-2-yl]-1-oxacyclododec-4-en-6-yl] 4-methylpiperazine-1-carboxylate]	4.78 nM	−51.998%	–	−93.368%	–	3130 nM	30 nM	104.297	–	–	–	–	–	–	12.1 nM	16.4 nM
C/C(=C\c1cccc(N(C)C2CCOCC2)c1)[C@H]1OC(=O)C[C@H](O)CC[C@H](C)[C@@H](OC(=O)N2CCN(C)CC2)/C=C/[C@@H]1C [Compound 170]	4.93 nM	–	–	–	–	11000 nM	31 nM	–	25.9 nM	−56.895%	−96.570%	23.2 nM	–	–	–	–
C/C(=C\c1cc(F)cc(N2CCC(=O)C2)c1)[C@H]1OC(=O)C[C@H](O)CC[C@H](C)[C@@H](OC(=O)N2CCN(C)CC2)/C=C/[C@@H]1C [Compound 35]	4.78 nM	–	–	–	–	913 nM	27.1 nM	–	107 nM	−46.227%	−87.702%	53.2 nM	–	–	–	–
C/C(=C\c1cc(F)cc(N2CCOCC2)c1)[C@H]1OC(=O)C[C@H](O)CC[C@H](C)[C@@H](OC(=O)N2CCN(C)CC2)/C=C/[C@@H]1C [Compound 3]	1.74 nM	–	–	–	–	18.6 nM	10.3 nM	–	–	−78.460%	−87.809%	–	2.42 nM	2.96 nM	–	–
